Laboratory results: patent US12109195B2, “Compositions and methods for treatment of vaginal infections” (priority 2020, dated 2024)
Structures can show the parent of a compound that is named as a salt.

Key:
[1] = tested on: G. vaginalis; experiment: Minimum inhibitory concentration (MIC) against G. vaginalis, two-fold dilutions in 96-well plates; format: cell-based; details: Gardnerella vaginalis; after 48 hours; tested 0.0625 to 16 mg/mL; FIG. 1A; read-out: concentration showing significant inhibition of growth of G. vaginalis (MIC)
Protocol: Formulations of creatinine hydrochloride were prepared in different concentrations to evaluate the effect on the inhibition of growth of G. vaginalis. Creatinine hydrochloride was used in varying concentrations ranging from 0.0625 mg/mL to 16 mg/mL. The minimum inhibitory concentration (MIC) for each solution was determined against G. vaginalis using two-fold dilutions and flat-bottom 96-well plates.

[2] = tested on: M. mulieris; experiment: Minimum inhibitory concentration (MIC) against M. mulieris, two-fold dilutions in 96-well plates; format: cell-based, Mobiluncus mulieris; details: FIG. 2A
Protocol: The minimum inhibitory concentration (MIC) for each solution was determined against M. mulieris using two-fold dilutions and flat-bottom 96-well plates. […] Methods for Antimicrobial Susceptibility Testing of Anaerobic Bacteria; Approved Standard—6th Edition).

## CN1CC(=O)NC1=N [creatinine hydrochloride]
[1]
  MIC: 4000 µg/mL
[2]; Mobiluncus mulieris, after 48 hours, tested 0.0625 to 16 mg/mL, read-out: concentration that inhibited growth of M. mulieris (MIC)
  MIC: 4000 µg/mL
[2]; after 72 hours
  concentration that still inhibited growth of M. mulieris: 8 mg/mL
